Test results: ChEMBL document CHEMBL4483862, “Open-source discovery of chemical leads for next-generation chemoprotective antimalarials” (2018)

System: Plasmodium berghei
Assay: Luciferase/luciferin-expressing antifolate-resistant parasites were used to infect a culture of HepG2 cells that were pre-incubated with compounds. Infected hepatocytes emit light due to the luciferase reaction. Assay results are presented as the percent inhibition of light emission compared to control. […]
Type: functional
Conditions: sporozoite; for IC90: read-out: LUCIFERASE INFECTION ASSAY - IC90
[1] = read-out: LUCIFERASE INFECTION ASSAY - IC50

SMILES | IC90 [µM] | also measured
Cc1nn(-c2ccccc2)c(Cl)c1/C=N/N1CCN(c2ccc(Cl)cc2)CC1 | > 10 | IC50 [1]: > 10 µM
C=CCc1ccc(O)c(-c2ccc(O)c(CC=C)c2)c1 [HONOKIOL] | > 12.4 | IC50 (FFLUC_HILL_SLOPE 14.9, FFLUC_R_SQUARED 0.388, read-out: LUCIFERASE INFECTION ASSAY - IC50): > 12.4 µM
Cc1nn(-c2nc3ccccc3s2)c2c1C(c1cc(Br)c(O)c(Br)c1)C1C(=O)CCCC1=N2 (configuration not stated) | > 10 | IC50 (FFLUC_HILL_SLOPE 9.07, FFLUC_R_SQUARED 0.197, PBLUC_HILL_SLOPE 1.11, PBLUC_R_SQUARED 0.592, read-out: LUCIFERASE INFECTION ASSAY - IC50): 4.69 µM
COc1ccc(NC(=O)NCC(=O)c2cc(C)n(-c3ccc(C)c(C)c3)c2C)cc1 | 3.99 | IC50 (HEPG2TOX_HILL_SLOPE 6.34, HEPG2TOX_R_SQUARED 0.826, PBLUC_HILL_SLOPE 22.8, PBLUC_R_SQUARED 0.569, read-out: LUCIFERASE INFECTION ASSAY - IC50): 3.63 µM
CCOC(=O)c1cc(OC)c2cccc(CN3CCCCCC3(C)C(=O)NCC(C)C)c2c1 (configuration not stated) | > 7.26 | IC50 (PBLUC_HILL_SLOPE 12.1, PBLUC_R_SQUARED 0.495, read-out: LUCIFERASE INFECTION ASSAY - IC50): 6.85 µM
COc1cc(-c2cc(-c3ccc(F)cc3)cnc2N)ccc1O | 4.78 | IC50 (PBLUC_HILL_SLOPE 9.98, PBLUC_R_SQUARED 0.631, read-out: LUCIFERASE INFECTION ASSAY - IC50): 3.84 µM
OCc1ccc(-c2cnc3cnc(-c4ccsc4)cn23)cc1 | 8.46 | IC50 (PBLUC_HILL_SLOPE 3.6, PBLUC_R_SQUARED 0.458, read-out: LUCIFERASE INFECTION ASSAY - IC50): 4.59 µM
O=C(Nc1cccc(S(=O)(=O)NC2CC2)c1)c1ccccc1SCc1ccco1 | 4.79 | IC50 (FFLUC_HILL_SLOPE 1.74, FFLUC_R_SQUARED 0.575, HEPG2TOX_HILL_SLOPE 9.06, HEPG2TOX_R_SQUARED 0.765, PBLUC_HILL_SLOPE 112, PBLUC_R_SQUARED 0.186, read-out: LUCIFERASE INFECTION ASSAY - IC50): 4.7 µM
C=CC/N=c1\scc(-c2ccc(Br)s2)n1/N=C/c1ccccc1[N+](=O)[O-] | > 10 | IC50 [1]: > 10 µM
CC(=O)c1c(C)[nH]c(C(=O)COC(=O)c2cnn(-c3ccccc3)c2)c1C | > 10 | IC50 [1]: > 10 µM
FC(F)(F)c1c(-c2nc(-c3ccc(Cl)cc3)no2)cnn1-c1ccccc1 | 1.19 | IC50 (PBLUC_HILL_SLOPE 1.45, PBLUC_R_SQUARED 0.734, read-out: LUCIFERASE INFECTION ASSAY - IC50): 0.262 µM
CCOc1ccc(C2=NNC(=Nc3cccc(S(=O)(=O)N(C)C)c3)SC2)cc1 | 4.99 | IC50 (FFLUC_HILL_SLOPE 1.45, FFLUC_R_SQUARED 0.572, HEPG2TOX_HILL_SLOPE 2.21, HEPG2TOX_R_SQUARED 0.976, PBLUC_HILL_SLOPE 3.43, PBLUC_R_SQUARED 0.708, read-out: LUCIFERASE INFECTION ASSAY - IC50): 2.63 µM
O=C1COc2ccc(-c3cs/c(=N\CCc4ccccc4)n3/N=C/c3ccc4ncccc4c3)cc2N1 | > 10 | IC50 (FFLUC_HILL_SLOPE 3.55, FFLUC_R_SQUARED 0.719, HEPG2TOX_HILL_SLOPE 3.57, HEPG2TOX_R_SQUARED 0.945, read-out: LUCIFERASE INFECTION ASSAY - IC50): > 10 µM
FC(F)(F)Oc1cccc(-c2nc3ccnc(NCc4ccccn4)c3[nH]2)c1 | > 10 | IC50 (HEPG2TOX_HILL_SLOPE 0.276, HEPG2TOX_R_SQUARED 0.811, PBLUC_HILL_SLOPE 0.809, PBLUC_R_SQUARED 0.487, read-out: LUCIFERASE INFECTION ASSAY - IC50): 2.04 µM
CS(=O)(=O)c1ccc(C(=O)OC(C(=O)c2c[nH]c3ccccc23)c2ccccc2)cc1[N+](=O)[O-] (configuration not stated) | 7.61 | IC50 (HEPG2TOX_HILL_SLOPE 12.6, HEPG2TOX_R_SQUARED 0.833, PBLUC_HILL_SLOPE 19.7, 53.6, PBLUC_R_SQUARED 0.857, 0.714, read-out: LUCIFERASE INFECTION ASSAY - IC50): 7.02 µM
O=S(=O)(c1ccc(Cl)cc1)c1nc(Nc2ccccc2)sc1Cl | > 10 | IC50 (HEPG2TOX_HILL_SLOPE 3.54, HEPG2TOX_R_SQUARED 0.784, PBLUC_HILL_SLOPE 12.5, PBLUC_R_SQUARED 0.109, read-out: LUCIFERASE INFECTION ASSAY - IC50): 9.24 µM

SMILES | IC90 [µM] | also measured
Cc1sc2nc(-c3cccs3)nc(N3CCCN(CC(=O)NC(C)C)CC3)c2c1C | > 10 | IC50 (PBLUC_HILL_SLOPE 9.52, PBLUC_R_SQUARED 0.368, read-out: LUCIFERASE INFECTION ASSAY - IC50): 8.07 µM
Cc1cc(C)cc(-n2c(SCc3nc4ccccc4n3C(F)F)nc3ccccc3c2=O)c1 | > 10 | IC50 [1]: > 10 µM
Cc1ccc(C(C)(C)C)cc1S(=O)(=O)Nc1ccc(C(=O)OC(C)c2nc(=O)c3c(C)c(C)sc3[nH]2)cc1 (configuration not stated) | > 10 | IC50 [1]: > 10 µM
COc1ccc(C2CC(c3ccccc3)=Nc3ccccc3S2)cc1 (configuration not stated) | > 9.55 | IC50 (PBLUC_HILL_SLOPE 6.73, PBLUC_R_SQUARED 0.0739, read-out: LUCIFERASE INFECTION ASSAY - IC50): > 9.55 µM
Cc1nn(Cc2nnc(-c3ccco3)o2)c(C)c1S(=O)(=O)N1CCCCC1 | > 10 | IC50 [1]: > 10 µM
COc1cc(C(=O)OCc2c(C)cc(C(C)(C)C)cc2C)cc(OC)c1OC | > 10 | IC50 [1]: > 10 µM
O=S(=O)(c1c(Cl)cc(Br)cc1Cl)N1CCN(C(=S)NC2CC3CCC2C3)CC1 (configuration not stated) | > 10 | IC50 (PBLUC_HILL_SLOPE 16.2, PBLUC_R_SQUARED 0.114, read-out: LUCIFERASE INFECTION ASSAY - IC50): 8.93 µM
O=C(Nc1ccc(-c2nccs2)cc1)c1occc1COc1ccccc1 | > 10 | IC50 [1]: > 10 µM
CCOC(=O)C1CCCN(CC(=O)N2N=C3/C(=C/c4ccc(Cl)cc4)CCCC3C2c2ccc(Cl)cc2)C1 (configuration not stated) | > 10 | IC50 (PBLUC_HILL_SLOPE 9.1, PBLUC_R_SQUARED 0.32, read-out: LUCIFERASE INFECTION ASSAY - IC50): 7.93 µM
COc1ccc(Cc2nnc(S)n2NC(=O)Nc2ccc(Cl)c(Cl)c2)cc1 | > 10 | IC50 [1]: > 10 µM
Clc1nc2ccc3nsnc3c2nc1Cl | 3.65 | IC50 (HEPG2TOX_HILL_SLOPE 109, HEPG2TOX_R_SQUARED 0.525, PBLUC_HILL_SLOPE 3.55, PBLUC_R_SQUARED 0.399, read-out: LUCIFERASE INFECTION ASSAY - IC50): 1.96 µM
O=[N+]([O-])c1ccc(N2CCN(c3ncccc3C(F)(F)F)CC2)nc1 | > 9.34 | IC50 (HEPG2TOX_HILL_SLOPE 6.77, HEPG2TOX_R_SQUARED 0.465, read-out: LUCIFERASE INFECTION ASSAY - IC50): > 9.34 µM
CCN(CC)c1ccc(/C=C(\C#N)C(=O)Nc2cccc(S(=O)(=O)N3CCCCC3)c2)cc1 | > 10 | IC50 (HEPG2TOX_HILL_SLOPE 7.51, HEPG2TOX_R_SQUARED 0.401, PBLUC_HILL_SLOPE 2.56, PBLUC_R_SQUARED 0.302, read-out: LUCIFERASE INFECTION ASSAY - IC50): 9.36 µM
CC(=O)c1ccccc1NC(=O)COC(=O)c1c2c(nc3ccccc13)CCC2 | > 10 | IC50 (HEPG2TOX_HILL_SLOPE 1.9, HEPG2TOX_R_SQUARED 0.384, PBLUC_HILL_SLOPE 3.75, PBLUC_R_SQUARED 0.218, read-out: LUCIFERASE INFECTION ASSAY - IC50): 6.16 µM
CCCCNC(=O)c1c(NC(=O)c2cccc(Cl)c2Cl)nc2ccccn12 | > 8.14 | IC50 (PBLUC_HILL_SLOPE 8.82, PBLUC_R_SQUARED 0.193, read-out: LUCIFERASE INFECTION ASSAY - IC50): 6.71 µM
